Reference: patent EP4349409A1, “COMPOUNDS FOR THE MANAGEMENT OF CELL STEMNESS AND INVASION IN CANCER AND RELATED DISEASES” (Instituto Biomar S.A., priority 2022, dated 2024)
Like-named read-outs stand apart in the source and are kept apart here.

Key:
T98G = assay: MTT-based cytotoxicity assay, T98G; assay type: cell-based; conditions: Homo sapiens, 72 h
Method: (§1) A dose-response analysis of BMT9 (concentrations ranging from 4.5 µM-18 µM), BCNU (from 150 µM-500 µM) and TMZ (350 µM-700 µM) was performed in two conventional glioblastoma cell lines (T98G, U373) and the GNS cell line G144 by MTT-based cytotoxicity assays (Figure 5A-D). Cells were seeded on p96-well plates and treated with the different compounds for 72 h. Then, the MTT reagent (3-(4,5-Dimethyl-2-thiazolyl)-2,5-diphenyl-2H-tetrazolium bromide diluted in PBS to a concentration of 1mg/ml), was added to each well to a final concentration of 0.33mg/ml, and incubated for 3 h at 37°C. After that, the media was removed, and formazan crystals were solubilized with DMSO. Absorbance was measured at 560 nm using a "Synergy HT" plate reader (Biotek). In the graphs, the Y axis represents the percentage of cell viability relative to non-treated cells. The IC50, when reached are marked by a rectangle. DMSO treatment had no effect on cell viability.

G144 [1] = assay: MTT-based cytotoxicity assay, G144; assay type: cell-based, human; conditions: Homo sapiens, 72 h, G144, MTT
Method: as §1
Previous studies have reported that the molecular signature of the GNSC G144 cell line corresponds to a 'proneural' subtype of GB with NSC features (Pollard et al., 2009; Danovi et al., 2013). Thus, to test BMT9 specificity we compared cellular viability when treating CD133-positive cells (either GNSCs or normal human fetal neural stem cells-NSC) versus CD133-negative human embryonic fibroblast (HEFs) (Figure 8A). MTT-based cytotoxicity assay (Figure 7B-D) were performed as previously described.
While the first line therapy of gliomas has proven its effectiveness and improved clinical outcomes, acquired chemoresistance to alkylating agents has been identified as a major cause of treatment failure (Sarkaria et al., 2008). In a murine model of GB, long-term treatment with subtoxic TMZ doses enriched the side population of cancer stem cells, increasing the tumor aggressiveness (Bleau et al., 2009). Thus, we generated TMZ-resistant G144-clones that were selected upon treatment with TMZ either at 500 µM or 700 µM for several months (R500 and R700, respectively). The obtained clones maintained CD133 stem marker expression (Figure 9A). We then analyzed BMT9 dose-dependent effect on cell viability, by MTT assay, comparing the resistant clones to parental cells.

U373 = assay: MTT-based cytotoxicity assay, U373; assay type: cell-based; conditions: Homo sapiens, U373 MG, 72 h
Method: as §1

G144 [2] = conditions: called 'known'; cell line not stated, used in G144 parental and resistant clone experiment; cited from earlier work
GNSCs = assay: MTT assay of BMT9 analogues against GNSCs; assay type: cell-based; conditions: 48 and 72 h
Method: as §1
The cytotoxicity of two BMT9 analogues synthetized by Instituto Biomar S.A. was evaluated by MTT assays.

P1-TP73 promoter = assay: P1-p73-Fluc-DsRed reporter validation in HCT116 p53-/- cells; assay type: cell-based, human; conditions: HCT116 p53-/- cells transfected with P1-p73-FlucDsRed vector, cultured with Doxo, 24 and 48 hours
Source text: A bimodal reporter vector, named P1-p73-Fluc-DsRed2, was engineered based on the previously published lentiviral system LV-CMV-Fluc-dsRed2 (Shah et al., 2008). […] Using this backbone, the CMV promoter was swapped for a 930 bp fragment of the human P1-TP73 promoter contained in the P1-p73-Luc-pGL3-Basic vector (-859 to +71 of TP73 gene) (Seelan et al., 2002) (Figure 1A'). To validate the generated system, we used the HCT116 p53-/- cells in which endogenous TAp73 expression can be induced by the genotoxic drug doxorubicin (Doxo), at RNA and protein levels (Figure 1B and Vossio et al., 2002, respectively). Next, we tested whether the engineered reporter vector could monitor these changes in endogenous TAp73 RNA levels. For this purpose, HCT116 p53-/- cells were either non-transfected (NT) or transfected with P1-p73-FlucDsRed vector and cultured with Doxo (black square fill pattern bar) or without treatment (grey bar) for the indicated time points (Figure 1C), at which the fluorescence levels (DsRed, Y axis) were measured by fluorimetry.
As depicted in Figure 1C, we detected an increase in endogenous P1-promoter activity after 24 and 48 hours of culture […].

SMILES: O=NN(CCCl)C(=O)NCCCl [BCNU, carmustine, reference compound]
- IC50 (T98G): 500 µM
- IC50 (G144 [1]): 250 µM
- IC50 (U373): 250 µM
- IC50 (G144 [2]): 500 µM

SMILES: C=C1C2CCC(C)(C3COc4c(C=O)c5c(c(OC)c4C3O)C(=O)OC5O)C1CCC2(C)C (stereo not shown) [BMT9.2]
- IC50 (GNSCs): ≤ 4.5 µM

SMILES: C=C1C2CCC(C)(C3COc4c(C=O)c5c(c(OC)c4C3O)C(=O)OC5OC(C)=O)C1CCC2(C)C (stereo not shown) [BMT9.5]
- IC50 (GNSCs): ≤ 4.5 µM

SMILES: COc1cccc2c1C(=O)c1c(O)c3c(c(O)c1C2=O)C[C@@](O)(C(=O)CO)C[C@@H]3O[C@H]1C[C@H](N)[C@H](O)[C@H](C)O1 [Doxo, doxorubicin]
- reporter activity (DsRed fluorescence) (P1-TP73 promoter): increase in reporter activity that was sustained after 48 hours
